# According to patent publication US9751869B2, “LXR modulators” (BRISTOL-MYERS SQUIBB COMPANY, priority 2013, dated 2017):
# Molecular target: T1, LXRβ (Homo sapiens, UniProt P55055)
# T1 construct: Co-transfection expression plasmids, comprising full-length LXRα (pCMX-h LXRα or LXRβ (pCMX-hLXRβ)); expressed in transfected cells; host or cells: CV-1 African green monkey kidney cells, transient transfection with pCMX-hLXRβ
# T1 sequence (P55055 1-460): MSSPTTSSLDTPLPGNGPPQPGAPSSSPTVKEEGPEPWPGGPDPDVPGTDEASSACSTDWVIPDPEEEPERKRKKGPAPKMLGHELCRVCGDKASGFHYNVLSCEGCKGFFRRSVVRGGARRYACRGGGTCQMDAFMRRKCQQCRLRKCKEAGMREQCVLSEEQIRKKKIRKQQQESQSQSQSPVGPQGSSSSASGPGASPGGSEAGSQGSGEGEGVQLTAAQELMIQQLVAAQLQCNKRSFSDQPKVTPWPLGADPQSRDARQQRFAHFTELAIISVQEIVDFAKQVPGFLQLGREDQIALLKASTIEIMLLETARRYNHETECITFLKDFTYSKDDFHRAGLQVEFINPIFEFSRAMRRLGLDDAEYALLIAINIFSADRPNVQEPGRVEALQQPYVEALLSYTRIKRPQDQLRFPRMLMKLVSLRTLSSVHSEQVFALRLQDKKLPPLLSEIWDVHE
# T1 sequence (P19793 1-462 partner): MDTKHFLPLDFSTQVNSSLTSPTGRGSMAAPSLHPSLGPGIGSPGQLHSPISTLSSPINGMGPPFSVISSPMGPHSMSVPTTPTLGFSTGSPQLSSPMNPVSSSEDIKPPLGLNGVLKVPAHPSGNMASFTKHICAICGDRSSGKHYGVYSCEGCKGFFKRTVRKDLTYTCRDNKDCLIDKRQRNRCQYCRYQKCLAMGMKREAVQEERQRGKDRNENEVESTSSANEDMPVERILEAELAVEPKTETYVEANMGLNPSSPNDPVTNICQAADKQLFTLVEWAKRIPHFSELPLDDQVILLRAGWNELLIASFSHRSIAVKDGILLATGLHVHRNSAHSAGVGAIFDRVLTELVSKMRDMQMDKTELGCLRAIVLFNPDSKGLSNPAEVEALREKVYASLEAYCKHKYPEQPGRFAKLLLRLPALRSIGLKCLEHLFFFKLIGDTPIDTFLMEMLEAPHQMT
# Assay: LXR/LXRE co-transfection assay (luciferase reporter) in CV-1 cells, LXRβ
# Type: cell-based
# Settings: for EC50: CV-1 cells transfected with pCMX-hLXRβ and LXREx1-Tk-Luciferase, 20 hours incubation, read-out: LXRbeta agonism EC50; for Emax: CV-1 cells, relative to maximum response of high control N-(3-((4-fluorophenyl)-(naphthalene-2-sulfonyl)amino)propyl)-2,2-dimethylpropionamide, read-out: LXRbeta % EFFICACY
# Method in brief: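 Luciferase read-out after 20 h compound treatment at 37 °C of CV-1 cells carrying transfected hLXRβ plus one-copy LXRE reporter, endogenous RXR partnering. Sigmoidal fit of 10-point half-log curves (4 wells each) gave EC50; % efficacy versus maximal response of the propionamide reference agonist.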
EC50,Emax,SMILES
82 nM,79%,"Cc1nc(-c2cc(-c3ccc(CO)c(S(C)(=O)=O)c3)ccc2-n2nc(C(F)(F)F)cc2C)c(-c2ccc(OC(F)(F)F)cc2)o1 [Example 387, (4′-(5-methyl-3-(trifluoromethyl)-1H-pyrazol-1-yl)-3′-(2-methyl-5-(4-(trifluoromethoxy)phenyl)oxazol-4-yl)-3-(methylsulfonyl)biphenyl-4-yl)methanol]"
194 nM,68%,"Cc1nc(-c2cc(-c3cccc(S(C)(=O)=O)c3)ccc2-n2ccc(C(F)(F)F)n2)c(-c2ccc(OC(F)F)c(Cl)c2)o1 [Example 397, 5-(3-chloro-4-(difluoromethoxy)phenyl)-2-methyl-4-(3′-(methylsulfonyl)-4-(3-(trifluoromethyl)-1H-pyrazol-1-yl)biphenyl-3-yl)oxazole]"
74 nM,81%,Cn1nc(C(F)(F)F)cc1-c1ccc(-c2cccc(C(C)(C)C(N)=O)c2)cc1-n1nncc1-c1ccc(OC(F)(F)F)cc1 [Example 12]
279 nM,30%,"Cc1nc(-c2ccc(OC(F)(F)F)cc2)c(-c2cc(-c3cc(F)c(CO)c(S(C)(=O)=O)c3)ccc2-n2cc(C(N)=O)c(C3CC3)n2)o1 [Example 448, 3-cyclopropyl-1-(3′-fluoro-4′-(hydroxymethyl)-3-(2-methyl-4-(4-(trifluoromethoxy)phenyl)oxazol-5-yl)-5′-(methylsulfonyl)-[1,1′-biphenyl]-4-yl)-1H-pyrazole-4-carboxamide]"
17 nM,87%,"Cc1nc(-c2ccc(OC(F)F)c(F)c2)c(-c2cc(-c3cc(F)c(CO)c(S(C)(=O)=O)c3)ccc2-c2cc(C(F)(F)C(=O)N(C)C)nn2C)o1 [Example 79, 2-(5-(3-(4-(4-(difluoromethoxy)-3-fluorophenyl)-2-methyloxazol-5-yl)-3′-fluoro-4′-(hydroxymethyl)-5′-(methylsulfonyl)biphenyl-4-yl)-1-methyl-1H-pyrazol-3-yl)-2,2-difluoro-N,N-dimethylacetamide]"
66 nM,91%,"Cc1nc(-c2ccc3c(c2)OC(F)(F)O3)c(-c2cc(-c3cccc(S(C)(=O)=O)c3)ccc2-n2ccc(C(F)(F)F)n2)o1 [Example 350, 4-(2,2-difluorobenzo[d][1,3]dioxol-5-yl)-2-methyl-5-(3′-(methylsulfonyl)-4-(3-(trifluoromethyl)-1H-pyrazol-1-yl)biphenyl-3-yl)oxazole]"
23 nM,93%,"Cc1nc(-c2ccc(OC(F)F)nc2)c(-c2cc(-c3cccc(S(C)(=O)=O)c3)ccc2-n2ccc(C(F)(F)F)n2)o1 [Example 353, 4-(6-(difluoromethoxy)pyridin-3-yl)-2-methyl-5-(3′-(methylsulfonyl)-4-(3-(trifluoromethyl)-1H-pyrazol-1-yl)biphenyl-3-yl)oxazole]"
126 nM,80%,"Cn1nc(C(F)F)cc1-c1ccc(-c2cccc(S(C)(=O)=O)c2)cc1-n1nncc1-c1ccc(OC(F)(F)F)cc1 [Example 22, 1-{4-[3-(difluoromethyl)-1-methyl-1H-pyrazol-5-yl]-3′-(methylsulfonyl)biphenyl-3-yl}-5-{4-[(trifluoromethyl)oxy]phenyl}-1H-1,2,3-triazole]"
11 nM,83%,"Cc1nc(-c2cc(-c3cc(F)c(CO)c(S(C)(=O)=O)c3)ccc2-n2ccc(C(F)(F)F)n2)c(-c2ccc(OC(F)F)nc2)o1 [Example 395, (3′-(5-(6-(difluoromethoxy)pyridin-3-yl)-2-methyloxazol-4-yl)-3-fluoro-5-(methylsulfonyl)-4′-(3-(trifluoromethyl)-1H-pyrazol-1-yl)biphenyl-4-yl)methanol]"
226 nM,99%,"Cc1nc(-c2ccc(OC(F)(F)F)cc2)c(-c2cc(-c3cccc(S(C)(=O)=O)c3)ccc2-n2ccc(CC#N)n2)o1 [Example 369, 2-(1-(3-(2-methyl-4-(4-(trifluoromethoxy)phenyl)oxazol-5-yl)-3′-(methylsulfonyl)-[1,1′-biphenyl]-4-yl)-1H-pyrazol-3-yl)acetonitrile]"
